Results as given in patent US6664040B2, “Compositions and methods for delivery of a molecule into a cell” (priority 2000, dated 2003).

Key:
[1] = test system: rat yolk choriocarcinoma L2-RYC cells; assay: Cellular uptake of 125I-labeled peptides; format: cell-based
Method: sVpr and Vpu^32-81 were iodinated with the chloramine-T method. Briefly, ˜20 μg of peptides were reacted with 5.5×10^7 Bq (1.5 mCi) Na^125I. Free iodine was removed by gel filtration through a Dowex ion-exchange column saturated with bovine serum albumin (BSA). For studies on cellular uptake, rat yolk choriocarcinoma L2-RYC cells were grown in Dulbecco's modified Eagle's medium (DMEM) with 10% (v/v) fetal bovine serum (FBS) to 75% confluence on 24-well plates. Cells were washed once with phosphate-buffered saline (PBS) and incubated in serum-free DMEM supplemented with 0.1% BSA and ^125I-labeled sVpr or, as a negative control, ^125I-labeled Vpu^32-81. Radioactive peptides were added to the medium at a specific activity of 18 kBq ml^−1. In parallel, cells were also treated with a 100-fold excess of unlabeled sVpr or Vpu^32-81. Cells were incubated for specified times at 37° C., and the distribution of intra- and extracellular radioactivity was determined as described (50). […] Radioactivity was determined in triplicate in the medium and cell layer. To correct for nonspecific binding of peptides to the cell surface, the cell layer radioactivity determined at time point 0 min (time when radiolabeled peptides were added to the medium for less than 30 sec) was subtracted as background from the radioactivity detected in the cell layer.

[2] = test system: Jurkat T cells; assay: sVpr uptake by Jurkat T cells (flow cytometry); format: cell-based, human
Description: (§1) Full length Vpr was chemically synthesized and fluorescently labeled, purified by reverse phase HPLC, and added to the extracellular media of various cell cultures. Flow cytometry and epifluorescence microscopy were employed to monitor cellular uptake of sVpr. The distribution of cells within different phases of the cell cycle was studied by To-Pro-3 dye staining of DNA followed by flow cytometric analysis.

[3] = test system: Jurkat T cells; assay: Apoptosis induction in Jurkat T cells; format: cell-based, human; details: by 3 days
[4] = test system: Jurkat T cells; assay: G2 cell cycle arrest in transduced Jurkat T cells; format: cell-based, human; details: transduced subpopulations
Description: as §1

[5] = test system: peripheral blood mononuclear cells; assay: Transduction of freshly isolated peripheral blood mononuclear cells; format: cell-based, human
Description: as §1

[6] = test system: HIV-1 ΔVpr; assay: HIV-1 ΔVpr replication in macrophages (RT activity) with sVpr in the extracellular medium; format: cell-based; details: monocyte-derived macrophages
[7] = test system: cells; assay: Trypsin-insensitive cellular uptake at 37° C. or 4° C. (geometric mean fluorescence); format: cell-based; details: presence or absence of trypsin
Description: as §1

[8] = test system: cells; assay: Transduction with and without urea denaturation (percent of cells FITC+); format: cell-based
Description: as §1

[9] = test system: HIV-1 virions; assay: Incorporation of sVpr into HIV-1 virions (western blot); format: cell-based; details: anti-Vpr and anti-p24
[10] = Dynamic light scattering (DLS); format: physicochemical
Method: DLS was performed on a DynaPro-801 Molecular Sizing Instrument. Protein solutions (250 μl) prepared either in water or in 50% aqueous TFE at a concentration of ˜3 mg ml^−1 (sVpr) or 4 mg ml^−1 (Vpr^47-96) were injected through a 0.1-μm Whatman membrane filter. Samples were illuminated by a semiconductor laser (780 nm, 25 mW) generated by a miniature solid-state Ga1-yAlyAs-diode. The photons scattered at a 90° angle by the particles in the sample were collected by an avalanche photodiode, and the time-dependent fluctuation in intensity of the scattered light was analyzed. The translational diffusion coefficient DT was calculated with the manufacturer's software (Dynamics, version 2.1). DT was then used to calculate the degree of sample polydispersity and the hydrodynamic radius of gyration RH of the particles using the Stokes-Einstein equation: (RH=(kbT)*(6πηDT)^−1 where kb=Boltzman's constant, T=absolute temperature in Kelvin, and η=solvent viscosity). Mr was calculated on a standard curve (Mr vs. RH) supplied by the manufacturer. Ten continuous measurements were made for each sample.

[11] = Solubility / absence of precipitation in aqueous solution; format: physicochemical
[12] = Immunization of rabbits with sVpr; format: in vivo, rabbit; details: used to generate polyclonal and monoclonal antibodies
Description: A rabbit polyclonal antiserum, R-96, was generated by immunization with sVpr.

[13] = target: synthetic Vpr (sVpr), full-length, sequence derived from the isolate HIV-1 NL4-3 (HIV-1 (isolate NL4-3)) (UniProt P12520); assay: SDS-PAGE without reducing agent, silver stain; dimers prevented by DTT

## sVpr: synthetic full-length 96-amino acid HIV-1 Vpr, sequence derived from isolate HIV-1 NL4-3 (SEQ ID NO: 1), made by solid-phase peptide synthesis
[1]; 125I-labeled, within 2 hours, 37° C.
  level of intracellular peptide, maximum: 8-10%
[1]; 120 min
  uptake with 100-fold excess of unlabeled sVpr: not inhibited
[2]; 7.5, 15, 30 μg/ml
  transduction of Jurkat T cells: dose-dependent fashion
[2]; Jurkat T cells, at 5 min
  Cy3-positive cells (uptake): > 75%
[3]
  apoptotic cells: approximately 90%
[4]
  G2 cell cycle arrest: induces a dose-dependent G2 cell cycle arrest
[5]; freshly isolated mixed cell populations
  transduction of CD4+, CD8+, CD3− lymphocytes and CD14+ monocytes: equivalently transduced
[5]; nanomolar concentrations
  transduction of freshly isolated primary human cells: rapidly and strongly transduces
[6]
  replication of HIV viruses lacking Vpr: significantly increases
[7]
  cell entry at 4° C.: enters cells at 4 °C
[8]
  effect of urea denaturation on transduction properties: does not enhance
[9]
  incorporation into newly produced HIV-1 virions: is incorporated into newly produced HIV-1 virions
[10]; 50% TFE
  hydrodynamic radius RH (average): 2.3 nm
[11]; aqueous solution
  concentration at which no precipitation was observed: ≥ 4000 µg/mL
[11]; phosphate buffer pH 3.9 to 7.2, water, TFE
  precipitation under CD solution conditions: no precipitation
[12]
  immunogenicity: highly immunogenic

## Vpr^47-96: peptide comprising the C-terminal domain of sVpr from positions Tyr-47 to Ser-96
[10]; 50% TFE
  hydrodynamic radius RH of major species (monomer, 94.2% abundance): 1.25
[10]; pure water (sVpr: 3.8 mg ml^−1, pH 3.0; components of 14% and 86% abundance)
  hydrodynamic radius RH: ~3 nm

## synthetic Vpr (sVpr), full-length, sequence derived from the isolate HIV-1 NL4-3 (from UniProt P12520 1-96)
[13]
  percent of molecules as disulfide-linked dimers: 10%
